According to US9757399B2, “Butyrylcholinesterase inhibitors” (priority 2006, dated 2017):
Read-outs that look alike come from different tables or passages of the source.

Assays:
trypsin = experiment: Trypsin activity (BAEE hydrolysis); type: biochemical; settings: 10 μM, 60 minutes at 25° C.
Method: The effect of DB2ClPP (di-n-butyl 2-chlorophenyl phosphate) on the activity of trypsin was assayed. Trypsin was incubated with solvent, 10 μM DB2CPP, or 10 μM DIFP (a known inhibitor of trypsin) for 60 minutes at 25° C. to determine any inhibitory effect of DB2CPP on enzymatic activity. Enzyme activity is given as nmoles of BAEE hydrolyzed per minute at 25° C. Data shown are the mean of three replicates ±SEM. (FIG. 3)

butyrylcholinesterase = biological target: T1, butyrylcholinesterase (Equus caballus, UniProt P81908); experiment: Reactivation of inactive butyrylcholinesterase; type: biochemical, horse
T1 construct: butyrylcholinesterase (from horse serum); purchased Sigma; host or cells: horse serum (natural source)
Method: BuChase was incubated with excess di-butyl 2-chlorophenyl phosphate for 60 min at 4° C. The excess phosphate was removed using a desalting column. The inactivated BuChase was incubated at 4° C. for various periods of time and then assayed for activity. […]

[1] = biological target: T2, butyrylcholinesterase (from horse serum) (Equus caballus, UniProt P81908); experiment: Rates of inactivation of butyrylcholinesterase, Ellman assay; type: biochemical; settings: 100 nM inhibitor, 25° C.
T2 construct: butyrylcholinesterase (from horse serum); purchased Sigma; host or cells: horse serum (natural source)
Method: Acetylcholinesterase (from electric eel), butyrylcholinesterase (from horse serum), DTNB, butyrylthiocholine, acetylthiocholine, and BSA were purchased from Sigma. The dialkyl 2-chlorophenyl (and 4-chlorophenyl) phosphates were solubilized in reagent grade methanol.
Cholinesterase activity measurements were performed essentially according to the method of Ellman (Biochemical Pharmacology 7:88-90, 1961). The composition of the assay mixture was 0.1 M sodium phosphate, pH 7.5, 0.033 M DTNB, 0.001 M MgCl2, and 100 μg/mL of BSA containing appropriate amounts of substrate and inhibitor. Each assay was initiated by the addition of substrate and the activity quantified by measuring the formation of the thionitrobenzoate anion at 412 nm at 37° C. Methanol used to solubilize the dialkyl phenyl phosphates [1% (v/v) final concentration] had no inhibitory effect on either enzyme.
Butyrylcholinesterase was pre-incubated at room temperature with inhibitor in the assay cocktail minus substrate for varying periods of time at 25° C. Substrate was then added and the activity measured as described above. The relative rates of enzyme inactivation were determined by plotting enzyme activity versus time of pre-incubation with inhibitor. Results were expressed as the rate constant for the rate of enzyme inactivation. In the case of AcChase, results were expressed as the % of activity remaining relative to the enzyme incubated only with solvents.
. […] In Table 2, BuChase was incubated for increasing periods of time at 25° C. with 100 nM inhibitor then assayed for activity as described above. Rate constants were calculated from a plot of enzyme activity vs. time of inhibitor exposure. […]. Slopes were calculated by linear regression analysis.

human umbilical cells = type: in vitro ADME
Method: Also, the uptake of di-n-butyl-2-chlorophenyl phosphate by human umbilical cells was measured after […] for both undifferentiated cells and differentiating neurons. (Table 6)

T1 sequence (P81908 whole entry): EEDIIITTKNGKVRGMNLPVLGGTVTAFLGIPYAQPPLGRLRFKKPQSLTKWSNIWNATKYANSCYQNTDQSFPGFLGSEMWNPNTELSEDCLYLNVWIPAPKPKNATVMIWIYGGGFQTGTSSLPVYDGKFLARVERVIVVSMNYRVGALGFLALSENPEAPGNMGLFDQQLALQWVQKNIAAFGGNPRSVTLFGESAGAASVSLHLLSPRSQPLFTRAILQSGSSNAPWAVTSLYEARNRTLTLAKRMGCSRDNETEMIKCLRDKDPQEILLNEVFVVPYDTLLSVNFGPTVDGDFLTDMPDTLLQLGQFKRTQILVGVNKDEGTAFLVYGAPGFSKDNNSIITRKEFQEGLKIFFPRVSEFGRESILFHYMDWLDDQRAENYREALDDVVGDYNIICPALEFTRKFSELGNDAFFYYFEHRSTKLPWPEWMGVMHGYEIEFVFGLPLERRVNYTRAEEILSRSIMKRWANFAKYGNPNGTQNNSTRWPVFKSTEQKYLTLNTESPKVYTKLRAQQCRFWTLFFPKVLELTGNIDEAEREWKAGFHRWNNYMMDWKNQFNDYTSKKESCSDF
T2 sequence (P81908 whole entry): as above

CCCCOP(=O)(OCCCC)Oc1ccccc1Cl [DB2ClPP, Di-n-butyl 2-chlorophenyl phosphate]
effect on trypsin activity (FIG. 3) (trypsin): none of the above mentioned enzymes were affected
% Remaining Activity (butyrylcholinesterase; 0 hours at 4° C. after removal of excess inhibitor): 0.6%
% Remaining Activity (butyrylcholinesterase; 3.5 hours at 4° C. after removal of excess inhibitor): 0.6%
% Remaining Activity (butyrylcholinesterase; 7 hours at 4° C. after removal of excess inhibitor): 0.8%
% Remaining Activity (butyrylcholinesterase; 24 hours at 4° C. after removal of excess inhibitor): 1.1%
reactivation of inactivated BuChase (butyrylcholinesterase; over 24 hours at 4° C.): no significant reactivation
k, rate constant of inactivation of butyrylcholinesterase ± S.E.M [1]: 64.76 ± 3.0 min^−1 × 10^−2
uptake, fg/cell (human umbilical cells; Neurons, 0 hours): 78.85 ± 8.04 fg/cell
uptake, fg/cell (human umbilical cells; Neurons, 24 hours): 820.52 ± 82.32 fg/cell
uptake, fg/cell (human umbilical cells; Undifferentiated cells, 0 hours): 114.72 ± 37.93 fg/cell
uptake, fg/cell (human umbilical cells; Undifferentiated cells, 24 hours): 795.89 ± 202.41 fg/cell
